Each structure is given as a SMILES string.

The target of this assay is T1, 5-hydroxytryptamine receptor 1A (Homo sapiens, UniProt P08908).
T1 sequence (P08908 whole entry): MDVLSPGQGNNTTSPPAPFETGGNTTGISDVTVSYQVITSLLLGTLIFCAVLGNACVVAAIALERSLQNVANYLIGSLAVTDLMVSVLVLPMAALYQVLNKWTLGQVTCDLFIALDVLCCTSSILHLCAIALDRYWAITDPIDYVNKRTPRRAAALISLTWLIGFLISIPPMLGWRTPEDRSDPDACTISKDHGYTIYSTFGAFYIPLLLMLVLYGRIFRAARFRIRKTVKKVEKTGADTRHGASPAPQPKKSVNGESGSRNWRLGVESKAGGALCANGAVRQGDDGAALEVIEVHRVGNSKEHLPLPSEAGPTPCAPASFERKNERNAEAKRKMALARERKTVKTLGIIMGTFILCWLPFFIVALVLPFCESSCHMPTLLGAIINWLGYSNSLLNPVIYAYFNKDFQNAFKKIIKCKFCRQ
In words: Displacement of [3H]8-OH-DPAT from 5HT1A receptor by vacuum filtration. On the technique in general: Loss of bound radioactivity is the signal in a displacement assay; it reports binding, not function.
As usually defined, the Ki is a dissociation constant, usually derived from enzyme kinetics or from competition with a known ligand. On to `CC1(C)O[C@H]2CC(=O)OC[C@]23[C@H]2CC[C@@]4(C)[C@H](c5ccoc5)OC(=O)[C@H]5O[C@]54[C@]2(C)C(=O)C[C@@H]13` [LIMONIN], for which the Ki was more than 100 µM.

Take `CNc1ccccc1C(=O)N1CCc2c([nH]c3ccccc23)C1=O` [RHETSININE]: the Ki was found to be 32 µM.

On to `C[n+]1c2n(c(=O)c3ccccc31)CCc1c-2[nH]c2ccccc12` [DEHYDROEVODIAMINE], for which the Ki worked out at 36 µM.

`COc1cc(-c2oc3cc(O)cc(O)c3c(=O)c2O[C@@H]2O[C@H](CO)[C@H](O)[C@H](O)[C@H]2O)ccc1O` yielded a Ki of more than 100 µM.

In the case of `CNCC(O)c1ccc(O)cc1` (stereo not drawn) [OXEDRINE], affinity was put at a Ki of 63 µM.

With `O=c1c(O[C@@H]2O[C@H](CO)[C@H](O)[C@H](O)[C@H]2O)c(-c2ccc(O)c(O)c2)oc2cc(O)cc(O)c12` [HYPEROSIDE], the Ki was more than 100 µM.

On to `O=c1c2ccccc2nc2n1CCc1c-2[nH]c2ccccc12` [RUTAECARPINE], for which the inhibition constant (Ki) was more than 100 µM.

`CN1c2ccccc2C(=O)N2CCc3c([nH]c4ccccc34)[C@H]21` [EVODIAMINE] came in with a Ki of more than 100 µM.
